Measured values as given in BigSolDB 2.1.

O=C(O)CCCc1c[nH]c2ccccc12
solubility (mole fraction)
Conditions	283.15 K	288.15 K	293.15 K	298.15 K	303.15 K	308.15 K	313.15 K	318.15 K	323.15 K
in 2-butanone	0.123	0.139	0.152	0.168	0.185	0.198	0.218	0.24	0.264
in acetone	0.22	0.24	0.257	0.274	0.291	0.315	0.339	0.365	0.399
in acetonitrile	0.0411	0.0531	0.0654	0.0814	0.104	0.123	0.155	0.192	0.256
in dimethyl carbonate	0.0194	0.022	0.0287	0.0354	0.0453	0.0535	0.0644	0.0827	0.101
in ethanol	0.048	0.0557	0.0642	0.0753	0.0886	0.1	0.116	0.141	0.171
in ethyl acetate	0.049	0.0582	0.0689	0.0808	0.0914	0.103	0.122	0.145	0.17
in ethyl lactate	0.101	0.106	0.117	0.128	0.14	0.151	0.165	0.19	0.22
in isobutanol	0.0213	0.0253	0.0315	0.0379	0.0477	0.0581	0.0697	0.0857	0.102
in isobutyl acetate	0.0355	0.0429	0.0498	0.0572	0.0649	0.0736	0.0848	0.0958	0.11
in isopentanol	0.0309	0.0348	0.0412	0.0505	0.0601	0.0725	0.0858	0.0985	0.116
in isopropanol	0.0406	0.0494	0.0599	0.0724	0.0859	0.0984	0.112	0.128	0.143
in isopropyl acetate	0.0492	0.0628	0.0711	0.0813	0.0905	0.101	0.11	0.124	0.149
in methanol	0.0481	0.0562	0.0656	0.0777	0.0922	0.104	0.123	0.153	0.181
in methyl acetate	0.0573	0.0623	0.0701	0.0812	0.0909	0.106	0.126	0.154	0.19
in n-butanol	0.0362	0.0422	0.0495	0.0582	0.0688	0.0786	0.0961	0.112	0.134
in n-butyl acetate	0.0582	0.0645	0.0726	0.0797	0.0885	0.0977	0.112	0.129	0.141
in n-pentanol	0.0362	0.0408	0.0486	0.058	0.0674	0.0764	0.0929	0.108	0.124
in n-propanol	0.0385	0.0446	0.0534	0.0605	0.0727	0.0863	0.0994	0.112	0.139
in sec-butanol	0.0417	0.0486	0.0582	0.0692	0.0829	0.0964	0.111	0.13	0.163
